From patent publication US8771723B2, “Compositions for reducing gastro-intestinal methanogenesis in ruminants” (priority 2009, dated 2014)
Several values for one entry are separate records, joined by “and”; a condition that tells them apart may be missing. Equal values may be shown once. Marks after values point to notes of the source that are not given here.

Columns and labels:
rumen microbes = assay: In vitro rumen fermentation simulation; format: cell-based, cow
Protocol: Feed used in rumen simulation was 1 gram of dry matter and composed of grass silage (0.5 g dry matter) and commercial compound feed, 0.5 g dry matter. The treatments were as indicate in the following table: […] All the treatments were run in quadruplicates, the total number of simulation vessels being 72. […] Finally, 2 ml of fresh, strained rumen fluid was added in the serum bottles, the final volume being 40 ml. This inoculation started the actual rumen simulation. Inoculation time for each vessel was registered and taken into account when sampling and stopping the fermentation. Rumen fermentation simulation was continued for 12 hours at 37° C. […] These samples were analysed for methane to see the effect of treatments on the total methane produced by rumen bacteria during the 12 hours. The analysis was performed by gas chromatography using flame ionisation detector and pure methane and ethane as standards. NO3 and NO2 were analysed from all simulation vessels at 0, 2, 4 and 12 hours. […] NH4 was analysed from all simulation vessels at 0, 2, 4 and 12 hours. The method was colorimetric and based on phenol-hypochlorite reaction. Statistical analysis consisted of two-tailed t-tests for all measured parameters. The tests were performed against the treatment with […] and MgSO4 amendment (treatments 2 and 17). t-test was chosen to let the individual treatments be independent of the other treatments tested simultaneously.

[1] = Feed intake, CO2/O2 exchange and heat production in respiration chambers; format: in vivo, male Texel Cross lambs
Protocol: After the adaptation period four animals (one block) were housed in indirect respiration calorimetry chambers for a week to determine gaseous exchange. In the following weeks a new block of sheep was introduced to the chambers each week. Each respiration chamber housed an individual sheep. The respiration calorimetry chambers used are described in detail in […] et al. (1987). […] Net production or consumption of these gases was calculated from the difference in concentrations between in and outgoing air multiplied by air flow and subsequently recalculated to standard circumstances (0° C., 101 kPa, no water vapour). […] Before morning feeding, orts were removed from the feed bins and weighed to determine voluntary feed intake. During the week in the respiration chambers, feed availability was restricted to 95% of the feed consumed by the animal consuming the least feed within a block in the week prior to housing in the respiration chambers. Feed restriction was applied to avoid interactions between the effect of the additives on DMI and the effect on methane production.

[2] = Blood methaemoglobin in cows supplemented with nitrate and sulphate; format: in vivo
Protocol: The experiment was a randomized block design, with 4 animals per block and different sulphate doses as treatments. Animals were blocked by milk yield and subsequently within a block randomly allotted to one of four dietary treatments: NO3, NO3+low SO4, NO3+medium SO4, NO3+high SO4.
The dietary additives were included in the premix (table 5). At feeding, the premixes were delivered to cows as part of a Total Mixed Ration. Water was freely available during the experiment.
Blood was sampled 3 h post-feeding twice a week throughout the experiment to closely monitor the concentration of methaemoglobin. Blood was collected into evacuated tubes containing heparin, plunged immediately into ice-cold water and stored in a refrigerator at 4 C. At the end of each sampling day, samples were dispatched for analysis and were analyzed the next day.

[3] = Feed intake and growth during the 4-week adaptation to dietary nitrate and sulphate; format: in vivo, male Texel Cross lambs; details: for Feed intake: main effect, additive in diet (Yes); for Effect on body weight gain: adaptation stage; for Body weight (BW) / Body weight gain (BWG) overall / Body weight gain (BWG): main effect (Yes); for Body weight gain (BWG) overall: overall adaptation stage
Description: Feed intake and growth were monitored during the experiment. […] The Animal Care and Use Committee of the Animal Sciences Group, WUR, Lelystad approved the experimental protocol of this experiment. […] During a four-week adaptation phase to the dietary additives, animals were housed in individual calf hutches to allow individual feeding. Sheep were weighed weekly to monitor growth during the entire experiment. […] Animals were blocked by weight and subsequently within a block randomly allotted to one of four dietary treatments: CON, NO3, SO4 or NO3+SO4. […] At feeding, the premixes were hand-mixed into the diets. Water was freely available during the experiment. […] Before morning feeding, orts were removed from the feed bins and weighed to determine voluntary feed intake. During the week in the respiration chambers, feed availability was restricted to 95% of the feed consumed by the animal consuming the least feed within a block in the week prior to housing in the respiration chambers. Feed restriction was applied to avoid interactions between the effect of the additives on DMI and the effect on methane production. […] Limestone was added to the control diet to ensure equal Ca-intake between treatments. MgO was included in the diet to obtain similar Mg-levels between diets. The volume of the different additions to the diets was different for each treatment, and wood cellulose was used to balance for this.

[4] = Methemoglobin content of blood during adaptation period
Protocol: Blood was sampled at d2, d8, d15, d22 and d28 at 1, 3 and 5 h post-feeding. […] Blood samples were taken in heparin containing collection tubes (Vacutainers) and stored in the refrigerator directly after sampling. At the end of the sampling day, samples were dispatched for analyses and were analyzed the next day.

[5] = system: methane emissions from enteric fermentation; assay: Methane production in indirect respiration calorimetry chambers; format: in vivo, male Texel Cross lambs; details: for Actual decrease in methane production as CH4 mass: CH4=0.714 g/l; for Methane production rate over 24 h versus control: fed once daily, nitrate: immediately after feeding, SO4: entire 24 h-period; for Actual decrease in methane production / Reduction in daily methane production: respiration chambers; for Actual decrease in methane production: 24.9 g NO3 or 27.0 g SO4 consumed per day; for Reduction in daily methane production: addition to the diet
Description: Feed intake and growth were monitored during the experiment. […] After the adaptation period four animals (one block) were housed in indirect respiration calorimetry chambers for a week to determine gaseous exchange. In the following weeks a new block of sheep was introduced to the chambers each week. Each respiration chamber housed an individual sheep. The respiration calorimetry chambers used are described in detail in […] et al. (1987). […] Net production or consumption of these gases was calculated from the difference in concentrations between in and outgoing air multiplied by air flow and subsequently recalculated to standard circumstances (0° C., 101 kPa, no water vapour). […] Animals were blocked by weight and subsequently within a block randomly allotted to one of four dietary treatments: CON, NO3, SO4 or NO3+SO4. During the adaptation phase, sheep were introduced to the experimental premixes in steps of 25% per week. […] Before morning feeding, orts were removed from the feed bins and weighed to determine voluntary feed intake. During the week in the respiration chambers, feed availability was restricted to 95% of the feed consumed by the animal consuming the least feed within a block in the week prior to housing in the respiration chambers. Feed restriction was applied to avoid interactions between the effect of the additives on DMI and the effect on methane production.

methanogens = assay: Enteric methanogen counts; details: in vivo
[6] = cited from earlier work

| Compound | Feed intake ([3]; Week 1 of adaptation) [g/lamb/day] | Feed intake ([3]; Week 2 of adaptation) [g/lamb/day] | Feed intake ([3]; Week 3 of adaptation) [g/lamb/day] | Feed intake ([3]; Week 4 of adaptation) [g/lamb/day] | Effect on body weight gain [3] | Body weight (BW) ([3]; day 0) [kg/lamb] | Body weight (BW) ([3]; day 7) [kg/lamb] | Body weight (BW) ([3]; day 14) [kg/lamb] | Body weight (BW) ([3]; day 21) [kg/lamb] | Body weight (BW) ([3]; day 28) [kg/lamb] | Body weight gain (BWG) overall [3] [kg/lamb/week] | Body weight gain (BWG) ([3]; week 1) [kg/lamb/week] | Body weight gain (BWG) ([3]; week 2) [kg/lamb/week] | Body weight gain (BWG) ([3]; week 3) [kg/lamb/week] | Body weight gain (BWG) ([3]; week 4) [kg/lamb/week] | Actual decrease in methane production as CH4 mass [5] [g] | Methane production rate over 24 h versus control [5] | Actual decrease in methane production [5] [L] | Reduction in daily methane production [5] [%] | effect on enteric methanogen counts (methanogens) | other results |
| --- | --- | --- | --- | --- | --- | --- | --- | --- | --- | --- | --- | --- | --- | --- | --- | --- | --- | --- | --- | --- | --- |
| 5Ca(NO3)2•NH4NO3•10H2O [Nitrate] | 2686 | 2591 | 2526 | 2411 | did not affect body weight gain | 43.0 | 43.6 | 44.7 | 45.2 | 45.5 | 2.46 | 0.54 | 1.08 | 0.59 | 0.25 | 5.8 | remained at a far lower level | 8.1 | 34 | reduce enteric methanogen counts | suppression of absolute methane production (rumen microbes; 12-hour simulation (FIG. 5A)): ~80%; total produced methane (rumen microbes; 12-hour simulation, 14 mM nitrate): 1.5 mL; residual concentration of ammonium (rumen microbes; 12 hours, 14 mM nitrate added (FIG. 8C)): 18 mM; Oxygen consumption lower than control ([1]; directly after feeding at 8 AM): 10-18%; MetHb-levels estimated from oxygen consumption ([1]; regression equation of Takahashi et al., 1998): approximately 5%; Reduction in oxygen consumption ([1]; respiration chambers, daily): 6%; rise in blood methaemoglobin ([2]; 100% inclusion rate of nitrate): more pronounced; Blood methaemoglobin ([2]; cows, diets with 3% NO3 of DM and increasing SO4 (table 5)): 13.1^a % of haemoglobin; Feed intake reduction ([3]; period beyond week 1 (more than 25% of final inclusion rate)): approximately 9%; blood MetHb-content ([4]; 75% of the inclusion rate, 3 h post feeding, one sheep tested positive): 3 % of Hb; MetHb-values ([4]; 100% inclusion rate for one week (d28), 3 h post-feeding, two individual sheep tested positive, listed as NO3): 7 % of Hb and 3 % of Hb; MetHb-levels, highest observed ([4]; whole experiment, detection limit 2% of Hb): ≤ 7 % of Hb; MetHb-levels ([6]; Sar et al. (2004), 0.9 g NO3/kg^0.75 of BW intraruminally, no adaptation): 18.4 % of Hb |
| O=[N+]([O-])[O-].[Na+] [NaNO3, reference compound] | – | – | – | – | – | – | – | – | – | – | – | – | – | – | – | – | – | – | – | – | Concentrations of MetHb ([6]; Takahashi et al., 1998, 1.5 g/kg BW^0.75 into the rumen): over 30% |
| O=S(=O)([O-])[O-].[Mg+2] [Sulphate, MgSO4 (anhydrous)] | 2724 | 2770 | 2618 | 2457 | did not affect body weight gain | 42.4 | 43.1 | 44.3 | 44.7 | 44.8 | 2.34 | 0.70 | 1.20 | 0.38 | 0.06 | 2.9 | consistently lower than the control treatment | 4 | 19 | does not | – |
| CC(O)C(=O)O (centres unmarked) [lactic acid, Na-lactate] | – | – | – | – | – | – | – | – | – | – | – | – | – | – | – | – | – | – | – | – | gas production, initial (rumen microbes; first 4 hours, compared to the nitrate enriched treatment (Calcinit + MgSO4)): suppressed; cumulative gas production, later time points (rumen microbes; later time points up to 12 h, compared to Calcinit + MgSO4): continued to suppress gas production dose dependently |
